# Results published in US20250092031A1, “RIPK3 INHIBITORS AND METHODS OF USE” (Momentum Therapeutics, Inc., priority 2023, published 2025).
# Legend:
# Murine L929 cells = experiment: Necroptosis inhibition assay in L929 cells (mTNFα + zVAD, Sytox Green); format: cell-based; details: Mus musculus, 10 ng/ml mTNFα and 20 μM zVAD, 6 hours, Sytox Green fluorescence
# How it was run: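 Murine L929 cells, treated 48 h after seeding with 10 ng/ml mTNFα plus 20 μM zVAD and compound ([…]), 6 h at 37° C. Necroptosis read by Sytox Green fluorescence (500ex/530em), scaled between 0.1% DMSO and TNFα+zVAD wells; IC50 from inhibition curves.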
# Human HT-29 cells = experiment: Necroptosis inhibition assay in HT-29 cells (hTNFα + zVAD + SMAC mimetic, Sytox Green/Hoechst); format: cell-based; details: 10 ng/ml hTNFα, 20 μM zVAD and 100 nM SMAC mimetic, 6 hours, Sytox/Hoechst positive cells, read-out: HT29 necroptosis inhibition IC50
# Description: Human HT-29 cells (ATCC-HTB-38) were seeded at 10,000 cells/well in a 96-well plate. Cells were treated 48 hours after seeding with 10 ng/ml hTNFα (R&D Systems), 20 μM zVAD (ChemShuttle) and 100 nM SMAC mimetic (MedChem Express) in the presence of different concentrations of compounds ranging from […] to 0.01 μM. Cells treated with 0.1% DMSO or cells treated with TNFα+zVAD+SMAC mimetic were used as control and vehicle respectively.
# Assay plates containing cells were incubated for 6 hours at 37° C. and 5% CO2. Necroptosis was assessed using Sytox Green Nucleic Acid Stain (Invitrogen) and Hoechst staining. After incubation, 100 μL of Sytox dye at 2 μM (2×) diluted in HBSS 1× was added to each well. At the same time, Hoechst stain is added to a final concentration of 10 μM and incubated for 15 min at room temperature. Images were taken for Sytox and Hoechst using the Cytation 5 microplate reader with DAPI and GFP filter cubes (Biotek). Sytox and Hoechst positive cells were counted with CellProfiler software.
# Percentage of necroptosis inhibition was calculated as the percent compared to control and vehicle conditions which correspond to 100% and 0% respectively. The half-maximum necroptosis inhibition (IC50) levels were calculated using GraphPad Prism software and are shown in Table 3 (NT represents compound not tested).
# RIPK3 = biological target: T1, RIPK3 (Homo sapiens, UniProt Q9Y572); experiment: RIPK3 kinase assay (radiometric HotSpot, Reaction Biology Corporation); format: biochemical
# T1 construct: purchased Reaction Biology Corporation (RBC), Malvern, USA (contract assay service)
# T1 sequence (Q9Y572 whole entry): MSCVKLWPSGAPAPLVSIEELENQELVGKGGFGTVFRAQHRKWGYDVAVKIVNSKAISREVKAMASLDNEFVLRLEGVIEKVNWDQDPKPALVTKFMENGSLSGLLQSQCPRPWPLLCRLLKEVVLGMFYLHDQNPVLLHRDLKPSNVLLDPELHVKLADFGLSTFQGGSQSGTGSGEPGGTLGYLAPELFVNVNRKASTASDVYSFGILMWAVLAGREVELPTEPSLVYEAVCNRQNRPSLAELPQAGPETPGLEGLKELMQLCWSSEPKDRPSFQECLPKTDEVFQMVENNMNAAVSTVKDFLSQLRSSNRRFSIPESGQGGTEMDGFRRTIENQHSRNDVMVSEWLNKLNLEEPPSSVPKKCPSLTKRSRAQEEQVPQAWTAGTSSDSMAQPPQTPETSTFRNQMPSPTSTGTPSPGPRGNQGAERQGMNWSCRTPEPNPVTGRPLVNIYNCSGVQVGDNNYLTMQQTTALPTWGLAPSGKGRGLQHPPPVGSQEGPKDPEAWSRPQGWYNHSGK
# Description: The assays were performed in Reaction Biology Corporation (RBC), Malvern, USA. Compounds were diluted with DMSO to a final stock concentration of 10 mM and then were tested in a 10-dose IC50 mode with a 3-fold serial dilution starting at […]. All the reactions were carried out at 10 μM ATP and MBP 20 μM as substrates. RIPK3 activity was determined using radiometric HotSpot™ kinase assay protocol and IC50 values were calculated use GraphPad Prism software.
IC50 (RIPK3) [nM],SMILES,IC50 (Murine L929 cells) [nM],IC50 (Human HT-29 cells) [nM]
2.58,"CN1CCN(Cc2ccc(-c3ccc4nccc(Nc5ccc6scnc6c5)c4c3)cc2)CC1 [Compound 1, N-(6-(4-((4-methylpiperazin-1-yl)methyl)phenyl)quinolin-4-yl)benzo[d]thiazol-5-amine]",341,334
1.29,"CN1CCN(Cc2ccc(-c3ccc4nccc(Nc5ccc6scnc6c5)c4c3)c(F)c2)CC1 [Compound 11, N-(6-(2-fluoro-4-((4-methylpiperazin-1-yl)methyl)phenyl)quinolin-4-yl)benzo[d]thiazol-5-amine]",333,102
1.67,"O=C1CN(Cc2ccc(-c3ccc4nccc(Nc5ccc6scnc6c5)c4c3)c(F)c2)CCN1 [Compound 12, 4-(4-(4-(benzo[d]thiazol-5-ylamino)quinolin-6-yl)-3-fluorobenzyl)piperazin-2-one]",776,208
1.72,"CN1CCN(Cc2ccc(-c3ccc4nccc(Nc5ccc6scnc6c5)c4c3)c(F)c2)CC1=O [Compound 13, 4-(4-(4-(benzo[d]thiazol-5-ylamino)quinolin-6-yl)-3-fluorobenzyl)-1-methylpiperazin-2-one]",1130,317
2.99,"Fc1cc(CN2CCCCC2)ccc1-c1ccc2nccc(Nc3ccc4scnc4c3)c2c1 [Compound 14, N-(6-(2-fluoro-4-(piperidin-1-ylmethyl)phenyl)quinolin-4-yl)benzo[d]thiazol-5-amine]",492,565
3.57,"CN1CCN(c2ccc(-c3ccc4nccc(Nc5ccc6scnc6c5)c4c3)cc2)CC1 [Compound 15, N-(6-(4-(4-methylpiperazin-1-yl)phenyl)quinolin-4-yl)benzo[d]thiazol-5-amine]",1190,> 1000
0.51,"CN1CCN(Cc2ccc(-c3ccc4c(Nc5ccc6scnc6c5)ccnc4c3)cc2)CC1 [Compound 16, N-(7-(4-((4-methylpiperazin-1-yl)methyl)phenyl)quinolin-4-yl)benzo[d]thiazol-5-amine]",104,158
0.95,"OCCN1CCN(Cc2ccc(-c3ccc4nccc(Nc5ccc6scnc6c5)c4c3)c(F)c2)CC1 [Compound 17, 2-(4-(4-(4-(benzo[d]thiazol-5-ylamino)quinolin-6-yl)-3-fluorobenzyl)piperazin-1-yl)ethanol]",341,97.1
2.13,"Fc1cc(CN2CCOCC2)ccc1-c1ccc2nccc(Nc3ccc4scnc4c3)c2c1 [Compound 22, N-(6-(2-fluoro-4-(morpholinomethyl)phenyl)quinolin-4-yl)benzo[d]thiazol-5-amine]",316,327
2.21,"Fc1cc(CN2CCCC2)ccc1-c1ccc2nccc(Nc3ccc4scnc4c3)c2c1 [Compound 23, N-(6-(2-fluoro-4-(pyrrolidin-1-ylmethyl)phenyl)quinolin-4-yl)benzo[d]thiazol-5-amine]",275,302
1.13,"CN1CCCN(Cc2ccc(-c3ccc4nccc(Nc5ccc6scnc6c5)c4c3)c(F)c2)CC1 [Compound 27, N-(6-(2-fluoro-4-((4-methyl-1,4-diazepan-1-yl)methyl)phenyl)quinolin-4-yl)benzo[d]thiazol-5-amine]",669,168
3.47,"CN1CCC(c2ccc(-c3ccc4nccc(Nc5ccc6scnc6c5)c4c3)cc2)CC1 [Compound 28, N-(6-(4-(1-methylpiperidin-4-yl)phenyl)quinolin-4-yl)benzo[d]thiazol-5-amine]",2590,> 10000
2.31,"CN1CCN(Cc2ccc(-c3ccc4c(Nc5ccc6scnc6c5)ccnc4c3)c(F)c2)CC1 [Compound 29, N-(7-(2-fluoro-4-((4-methylpiperazin-1-yl)methyl)phenyl)quinolin-4-yl)benzo[d]thiazol-5-amine]",494,341
0.65,"CN1CCN(C(=O)c2ccc(-c3ccc4c(Nc5ccc6scnc6c5)ccnc4c3)cc2)CC1 [Compound 34, (4-(4-(benzo[d]thiazol-5-ylamino)quinolin-7-yl)phenyl)(4-methylpiperazin-1-yl)methanone]",68.5,119
3.97,"CN1CCN(C(=O)c2ccc(-c3ccc4nccc(Nc5ccc6scnc6c5)c4c3)cc2)CC1 [Compound 35, (4-(4-(benzo[d]thiazol-5-ylamino)quinolin-6-yl)phenyl)(4-methylpiperazin-1-yl)methanone]",818,116
1.28,"CC(C)(C)N1CCN(Cc2ccc(-c3ccc4nccc(Nc5ccc6scnc6c5)c4c3)c(F)c2)CC1 [Compound 36, N-(6-(4-((4-(tert-butyl)piperazin-1-yl)methyl)-2-fluorophenyl)quinolin-4-yl)benzo[d]thiazol-5-amine]",318,353
1.79,"CC(C)(C)N1CCN(Cc2ccc(-c3ccc4c(Nc5ccc6scnc6c5)ccnc4c3)c(F)c2)CC1 [Compound 37, N-(7-(4-((4-(tert-butyl)piperazin-1-yl)methyl)-2-fluorophenyl)quinolin-4-yl)benzo[d]thiazol-5-amine]",445,670
18.3,"Fc1cc(CN2CCC(F)(F)CC2)ccc1-c1ccc2nccc(Nc3ccc4scnc4c3)c2c1 [Compound 40, N-(6-(4-((4,4-difluoropiperidin-1-yl)methyl)-2-fluorophenyl)quinolin-4-yl)benzo[d]thiazol-5-amine]",1060,7870
0.133,"Fc1cc(CN2CCNCC2)ccc1-c1ccc2nccc(Nc3ccc4scnc4c3)c2c1 [Compound 41, N-(6-(2-fluoro-4-(piperazin-1-ylmethyl)phenyl)quinolin-4-yl)benzo[d]thiazol-5-amine]",365,86.8
0.162,"Fc1cc(CN2CCCCC2)ccc1-c1ccc2c(Nc3ccc4scnc4c3)ccnc2c1 [Compound 43, N-(7-(2-fluoro-4-(piperidin-1-ylmethyl)phenyl)quinolin-4-yl)benzo[d]thiazol-5-amine]",188,93.9
0.86,"O=c1ccccn1Cc1ccc(-c2ccc3nccc(Nc4ccc5scnc5c4)c3c2)c(F)c1 [Compound 47, 1-(4-(4-(benzo[d]thiazol-5-ylamino)quinolin-6-yl)-3-fluorobenzyl)pyridin-2(1H)-one]",421,1020
1.92,"O=C(c1ccc(-c2ccc3c(Nc4ccc5scnc5c4)ccnc3c2)c(F)c1)N1CCOCC1 [Compound 244, (4-(4-(benzo[d]thiazol-5-ylamino)quinolin-7-yl)-3-fluorophenyl)(morpholino)methanone]",< 1000,
,"O=C(c1ccc(-c2ccc3nccc(Nc4ccc5scnc5c4)c3c2)cn1)N1CCOCC1 [Compound 326, (5-(4-(benzo[d]thiazol-5-ylamino)quinolin-6-yl)pyridin-2-yl)(morpholino)methanone]",1790,305
,"CN1CCN(Cc2ccc(-c3ccc4c(Nc5ccc6scnc6c5)ccnc4c3)c(F)c2)CC1=O [Compound 327, 4-(4-(4-(benzo[d]thiazol-5-ylamino)quinolin-7-yl)-3-fluorobenzyl)-1-methylpiperazin-2-one]",160,25.2
,"CC(C)S(=O)(=O)c1ccc2nccc(Nc3ccc4scnc4c3)c2c1 [Compound A, N-(6-(isopropylsulfonyl)quinolin-4-yl)benzo[d]thiazol-5-amine, reference compound]",1960,1260

SMILES,IC50 (RIPK3) [nM],IC50 (Murine L929 cells) [nM],IC50 (Human HT-29 cells) [nM]
"CN1CCN(Cc2ccc(-c3ccc4nccc(Nc5ccc6scnc6c5)c4c3)cc2F)CC1 [Compound 21, N-(6-(3-fluoro-4-((4-methylpiperazin-1-yl)methyl)phenyl)quinolin-4-yl)benzo[d]thiazol-5-amine]",1.51,< 10000,
"CN1CCN(Cc2ccc(-c3ccc4nccc(Nc5ccc(Cl)c(Cl)c5)c4c3)c(F)c2)CC1 [Compound 31, N-(3,4-dichlorophenyl)-6-(2-fluoro-4-((4-methylpiperazin-1-yl)methyl)phenyl)quinolin-4-amine]",2.75,1660,523
